# Test results published in ChEMBL document CHEMBL2157997, “β-D-2'-α-F-2'-β-C-Methyl-6-O-substituted 3',5'-cyclic phosphate nucleotide prodrugs as inhibitors of hepatitis C virus replication: a structure-activity relationship study” (Bioorg Med Chem Lett, 2012).
# Assays:
# [1] = tested on: Huh-7; assay: Prodrug activation in human HuH7 cells infected with HCV genotype 1b assessed as Tmax of beta-D-2'-deoxy-2'-alpha-fluoro-2'-beta-C-methylguanosine triphosphate level at 100 uM; format: cell-based; settings: huh-7, 100 µM
# [2] = Half life in human plasma; format: ADME, cell-free
# [3] = Half life in simulated gastric fluid; format: physicochemical
# [4] = tested on: Hepatocyte; assay: Prodrug activation in human primary hepatocytes assessed as assessed as Tmax of beta-D-2'-deoxy-2'-alpha-fluoro-2'-beta-C-methylguanosine triphosphate level at 100 uM; format: cell-based, Liver
# [5] = Half life in rat plasma; format: ADME, cell-free
# [6] = Half life in human liver S9 fraction; format: ADME, subcellular
# [7] = Half life in simulated intestinal fluid; format: physicochemical
# [8] = tested on: Hepatitis C virus; assay: Antiviral activity against Hepatitis C virus genotype 1b replicon infected in clone A cells assessed as inhibition of viral replication by RT-PCR analysis; format: functional, Hepacivirus hominis
# [9] = Cytotoxicity against human HuH7 cells; format: cell-based; settings: Huh-7 cells
# [10] = tested on: Hepatitis C virus; assay: Antiviral activity against Hepatitis C virus genotype 1b replicon infected in Lunet cells by luciferase reporter gene assay; format: functional, Hepacivirus hominis
# [11] = AUC (infinity) in rat at 40 mg/kg, po administered QD measured after 1 day; format: ADME, organism-based; set-up: time infinity, dose 40 mg/kg, route oral; settings: plasma
# [12] = tested on: CCRF-CEM; assay: Mitochondrial toxicity against human CEM cells assessed as decrease in mitochondrial COX2 DNA up to 100 uM after 14 days by RT-PCR analysis; format: cell-based; settings: 336 h
# [13] = tested on: Rattus norvegicus; assay: Prodrug activation in rat liver assessed as beta-D-2'-deoxy-2'-alpha-fluoro-2'-beta-C-methylguanosine diphosphate level at 40 mg/kg, po administered QD as repeated dose measured at 4 hrs post-dosing on day 8; format: organism-based; set-up: dose 40 mg/kg, route oral; settings: in vivo
# [14] = Cmax in rat at 40 mg/kg, po administered QD measured after 1 day; format: ADME, organism-based; set-up: dose 40 mg/kg, route oral; settings: in vivo
# [15] = tested on: Huh-7; assay: Cytotoxicity against human HuH7 cells up to 100 uM after 8 days by MTT assay; format: cell-based; settings: huh-7, 192 h
# [16] = tested on: CCRF-CEM; assay: Mitochondrial toxicity against human CEM cells assessed as decrease in ribosomal DNA up to 100 uM after 14 days by RT-PCR analysis; format: cell-based; settings: 336 h
# [17] = tested on: Rattus norvegicus; assay: Tlast in rat at 40 mg/kg, po administered QD measured after 1 day; format: ADME, organism-based; set-up: dose 40 mg/kg, route oral; settings: in vivo, 24 h
# [18] = Tmax in rat at 40 mg/kg, po administered QD measured after 1 day; format: ADME, organism-based; set-up: dose 40 mg/kg, route oral; settings: in vivo
# [19] = tested on: BXPC-3; assay: Cytotoxicity against human BxPC3 cells up to 100 uM after 8 days by MTT assay; format: cell-based; settings: bxpc-3, 192 h
# [20] = tested on: Rattus norvegicus; assay: Prodrug conversion in rat liver assessed as beta-D-2'-deoxy-2'-alpha-fluoro-2'-beta-C-methylguanosine triphosphate level at 40 mg/kg, po administered QD as repeated dose measured at 4 hrs post-dosing on day 8; format: ADME, organism-based; set-up: dose 40 mg/kg, route oral; settings: in vivo
# [21] = tested on: HepG2; assay: Mitochondrial toxicity against human HepG2 cells assessed as decrease in ribosomal DNA up to 100 uM after 14 days by RT-PCR analysis; format: cell-based; settings: hepg2, 336 h
# [22] = Cmax in rat at 40 mg/kg, po administered QD measured after 7 days; format: ADME, organism-based; set-up: dose 40 mg/kg, route oral; settings: in vivo
# [23] = tested on: CCRF-CEM; assay: Cytotoxicity against human CEM cells up to 100 uM after 8 days by MTT assay; format: cell-based; settings: 192 h
# [24] = AUClast in rat at 40 mg/kg, po administered QD measured after 1 day; format: ADME, organism-based; set-up: dose 40 mg/kg, route oral; settings: plasma
# [25] = tested on: Hepatitis C virus; assay: Antiviral activity against Hepatitis C virus expressing NS5B S282T mutant by cell-based replicon assay; format: functional, Hepacivirus hominis
# [26] = tested on: HepG2; assay: Mitochondrial toxicity against human HepG2 cells assessed as decrease in mitochondrial COX2 DNA up to 100 uM after 14 days by RT-PCR analysis; format: cell-based; settings: hepg2, 336 h
# [27] = tested on: Rattus norvegicus; assay: Prodrug activation in rat liver assessed as beta-D-2'-deoxy-2'-alpha-fluoro-2'-beta-C-methylguanosine monophosphate level at 40 mg/kg, po administered QD as repeated dose measured at 4 hrs post-dosing on day 8; format: organism-based; set-up: dose 40 mg/kg, route oral; settings: in vivo
# [28] = Half life in rat at 40 mg/kg, po administered QD measured after 1 day; format: ADME, organism-based; set-up: dose 40 mg/kg, route oral; settings: in vivo
# [29] = AUC (infinity) in rat at 40 mg/kg, po administered QD measured after 7 days; format: ADME, organism-based; set-up: time infinity, dose 40 mg/kg, route oral; settings: plasma
# [30] = tested on: HepG2; assay: Cytotoxicity against human HepG2 cells up to 100 uM after 8 days by MTT assay; format: cell-based; settings: hepg2, 192 h
# [31] = tested on: Rattus norvegicus; assay: Tlast in rat at 40 mg/kg, po administered QD measured after 7 days; format: ADME, organism-based; set-up: dose 40 mg/kg, route oral; settings: in vivo, 168 h
# [32] = AUClast in rat at 40 mg/kg, po administered QD measured after 7 days; format: ADME, organism-based; set-up: dose 40 mg/kg, route oral; settings: plasma
# [33] = Tmax in rat at 40 mg/kg, po administered QD measured after 7 days; format: ADME, organism-based; set-up: dose 40 mg/kg, route oral; settings: in vivo
# [34] = Half life in rat at 40 mg/kg, po administered QD measured after 7 days; format: ADME, organism-based; set-up: dose 40 mg/kg, route oral; settings: in vivo
# [35] = tested on: Rattus norvegicus; assay: Prodrug activation in rat liver assessed as total nucleotide level at 40 mg/kg, po administered QD as repeated dose measured at 4 hrs post-dosing on day 8; format: organism-based; set-up: dose 40 mg/kg, route oral; settings: in vivo
# [36] = tested on: Rattus norvegicus; assay: Prodrug activation in rat liver assessed as free nucleoside level at 40 mg/kg, po administered QD as repeated dose measured at 4 hrs post-dosing on day 8; format: organism-based; set-up: dose 40 mg/kg, route oral; settings: in vivo
# [37] = tested on: Hepatitis C virus; assay: Ratio of PSI-352938 EC90 to compound EC90 for Hepatitis C virus genotype 1b infected in clone A cells; format: functional, Hepacivirus hominis
compound,measurement,setting,value
COc1nc(N)nc2c1ncn2[C@@H]1O[C@H](COP(=O)(N[C@@H](C)C(=O)OC(C)C)Oc2ccccc2)[C@@H](O)[C@@]1(C)F (some centres undefined),Tmax,[1],24 h
same,half-life,[2],> 24 h
same,half-life,[3],16 h
same,Tmax,[4],8 h
same,half-life,[5],< 0.02 h
same,half-life,[6],0.44 h
same,half-life,[7],> 20 h
COc1nc(N)nc2c1ncn2[C@@H]1O[C@@H]2COP(=O)(OC(C)C)O[C@H]2[C@@]1(C)F (some centres undefined),EC90,[8],680 nM
same,half-life,[2],> 24 h
same,half-life,[3],> 20 h
same,half-life,[5],5.6 h
same,half-life,[6],> 24 h
same,CC90,[9],> 100000 nM
same,EC90,[10],25.8 nM
same,half-life,[7],> 20 h
CCOP1(=O)OC[C@H]2O[C@@H](n3cnc4c(OC)nc(N)nc43)[C@](C)(F)[C@@H]2O1 (some centres undefined),CC90,[9],> 10000 nM
same,EC90,[10],35.8 nM
COc1nc(N)nc2c1ncn2[C@@H]1O[C@@H]2COP(=O)(OCc3ccccc3)O[C@H]2[C@@]1(C)F (some centres undefined),CC90,[9],> 10000 nM
same,EC90,[10],70 nM
COc1nc(N)nc2c1ncn2[C@@H]1O[C@@H]2COP(=O)(O)O[C@H]2[C@@]1(C)F,CC90,[9],> 100000 nM
same,EC90,[10],180 nM
CC(C)Oc1nc(N)nc2c1ncn2[C@@H]1O[C@@H]2COP(=O)(OC3CCCC3)O[C@H]2[C@@]1(C)F (some centres undefined),EC90,[8],184 nM
same,AUC(0-inf),[11],770 ng·h/mL
same,Activity,[12],Non-toxic
same,Drug metabolism,[13],17.61 nmol/g
same,Cmax,[14],80 ng/mL
same,Tmax,[1],72 h
same,half-life,[2],> 23.4 h
same,half-life,[3],9 h
same,Activity,[15],Non-toxic
same,Activity,[16],Non-toxic
same,Tlast,[17],10.7 h
same,Tmax,[4],24 h
same,Tmax,[18],3.67 h
same,Activity,[19],Non-toxic
same,Drug metabolism,[20],2.02 nmol/g
same,Activity,[21],Non-toxic
same,half-life,[5],> 24 h
same,Cmax,[22],50 ng/mL
same,Activity,[23],Non-toxic
same,AUC(0-t) at 24 h,[24],340 ng·h/mL
same,EC90,[25],23 nM
same,half-life,[6],> 24 h
same,Activity,[26],Non-toxic
same,Drug metabolism,[27],20.85 nmol/g
same,half-life,[28],2.83 h
same,AUC(0-inf),[29],210 ng·h/mL
same,Activity,[30],Non-toxic
same,Tlast,[31],8 h
same,AUC(0-t) at 168 h,[32],170 ng·h/mL
same,Tmax,[33],2.33 h
same,half-life,[34],3.32 h
same,CC90,[9],> 100000 nM
same,Drug metabolism,[35],40.5 nmol/g
same,EC90,[10],60 nM
same,half-life,[7],15 h
same,Drug metabolism,[36],7.47 nmol/g
CC(C)Oc1nc(N)nc2c1ncn2[C@@H]1O[C@@H]2COP(=O)(OC3CCC3)O[C@H]2[C@@]1(C)F (some centres undefined),EC90,[8],224 nM
same,half-life,[2],11.7 h
same,half-life,[3],2.6 h
same,half-life,[5],8.6 h
same,half-life,[6],6.3 h
same,CC90,[9],> 100000 nM
same,EC90,[10],50 nM
same,half-life,[7],4.2 h
CC(C)Oc1nc(N)nc2c1ncn2[C@@H]1O[C@@H]2COP(=O)(OC3CCCCC3)O[C@H]2[C@@]1(C)F (some centres undefined),EC90,[10],300 nM
CC(C)Oc1nc(N)nc2c1ncn2[C@@H]1O[C@@H]2COP(=O)(OC(C)C)O[C@H]2[C@@]1(C)F (some centres undefined),EC90,[8],677 nM
same,half-life,[2],> 24 h
same,half-life,[3],> 20 h
same,half-life,[5],> 24 h
same,half-life,[6],16.3 h
same,CC90,[9],> 100000 nM
same,EC90,[10],740 nM
same,half-life,[7],> 20 h
CCOP1(=O)OC[C@H]2O[C@@H](n3cnc4c(OC(C)C)nc(N)nc43)[C@](C)(F)[C@@H]2O1 (some centres undefined),EC90,[10],2250 nM
CC(C)Oc1nc(N)nc2c1ncn2[C@@H]1O[C@@H]2COP(=O)(OCc3ccccc3)O[C@H]2[C@@]1(C)F (some centres undefined),CC90,[9],> 100000 nM
same,EC90,[10],40 nM
CC(C)Oc1nc(N)nc2c1ncn2[C@@H]1O[C@@H]2COP(=O)(O)O[C@H]2[C@@]1(C)F,EC90,[10],> 10000 nM
CCCOP1(=O)OC[C@H]2O[C@@H](n3cnc4c(OCC)nc(N)nc43)[C@](C)(F)[C@@H]2O1 (some centres undefined),EC90,[8],13300 nM
same,CC90,[9],> 100000 nM
COc1nc(N)nc2c1ncn2[C@@H]1O[C@@H]2COP(=O)(OC3CCC3)O[C@H]2[C@@]1(C)F (some centres undefined),EC90,[8],135 nM
same,AUC(0-inf),[11],9500 ng·h/mL
same,Activity,[12],Non-toxic
same,Drug metabolism,[13],32.36 nmol/g
same,Cmax,[14],2080 ng/mL
same,Ratio,[37],>=10
same,Tmax,[1],48 h
same,half-life,[2],18.3 h
same,half-life,[3],< 4 h
same,Activity,[15],Non-toxic
same,Activity,[16],Non-toxic
same,Tlast,[17],20 h
same,Tmax,[4],> 48 h
same,Tmax,[18],1.67 h
same,Activity,[19],Non-toxic
same,Drug metabolism,[20],3.69 nmol/g
same,Activity,[21],Non-toxic
same,half-life,[5],15.8 h
same,Cmax,[22],5170 ng/mL
same,Activity,[23],Non-toxic
same,AUC(0-t) at 24 h,[24],9480 ng·h/mL
same,EC90,[25],67 nM
same,half-life,[6],2.6 h
same,Activity,[26],Non-toxic
same,Drug metabolism,[27],29.9 nmol/g
same,half-life,[28],1.32 h
same,AUC(0-inf),[29],13900 ng·h/mL
same,Activity,[30],Non-toxic
same,Tlast,[31],20 h
same,AUC(0-t) at 168 h,[32],13900 ng·h/mL
same,Tmax,[33],4 h
same,half-life,[34],1.43 h
same,CC90,[9],> 100000 nM
same,Drug metabolism,[35],65.93 nmol/g
same,EC90,[10],46 nM
same,half-life,[7],< 6 h
same,Drug metabolism,[36],15.5 nmol/g
COc1nc(N)nc2c1ncn2[C@@H]1O[C@@H]2COP(=O)(OC3CCCCC3)O[C@H]2[C@@]1(C)F (some centres undefined),CC90,[9],> 10000 nM
same,EC90,[10],39 nM
